Laboratory results as given in ChEMBL document CHEMBL5518206, “Hit-to-Lead Identification and Validation of a Triaromatic Pleuromutilin Antibiotic Candidate” (J Med Chem, 2024).
Values after ≈ are worked out from the molar mass of the structure shown. Active and inactive are the calls of the source. No cut-off for these calls is given here.

How the values were obtained:
[1] = Inhibition of P-gp efflux in MDCKII-MDR1 cells using calcein-AM as substrate assessed as intracellular calcein fluorescence preincubated for 15 mins followed by substrate addition and measured by fluorescence based assay; format: cell-based; conditions: Canis lupus familiaris
Staphylococcus aureus [2] = assay: Antibacterial activity against multi drug-resistant Staphylococcus aureus USA300 FPR3757 assessed as inhibition of visible growth incubated for 20 to 24 hrs by microbroth serial dilution assay; format: functional; conditions: time 20-24 hrs, read-out: MIC100
Streptococcus pneumoniae = assay: Antibacterial activity against Streptococcus pneumoniae assessed as inhibition of visible growth incubated for 20 to 24 hrs by microbroth serial dilution assay; format: functional; conditions: time 20-24 hrs, read-out: MIC100
Enterococcus faecalis = assay: Antibacterial activity against Enterococcus faecalis assessed as inhibition of visible growth incubated for 20 to 24 hrs by microbroth serial dilution assay; format: functional; conditions: time 20-24 hrs, read-out: MIC100
Enterococcus faecium [3] = assay: Antibacterial activity against Vancomycin-resistant Enterococcus faecium assessed as inhibition of visible growth incubated for 20 to 24 hrs by microbroth serial dilution assay; format: functional; conditions: time 20-24 hrs, read-out: MIC100
Enterococcus faecium [4] = assay: Antibacterial activity against Linezolid/Ampicillin/ciprofloxacin/Vancomycin-resistant Enterococcus faecium assessed as inhibition of visible growth incubated for 20 to 24 hrs by microbroth serial dilution assay; format: functional; conditions: time 20-24 hrs, read-out: MIC100
Escherichia coli = assay: Antibacterial activity against Escherichia coli assessed as inhibition of visible growth incubated for 20 to 24 hrs by microbroth serial dilution assay; format: functional, organism-based; conditions: time 20-24 hrs
Listeria = assay: Antibacterial activity against Listeria assessed as inhibition of visible growth incubated for 20 to 24 hrs by microbroth serial dilution assay; format: functional, organism-based; conditions: time 20-24 hrs
[5] = system: Staphylococcus epidermidis; assay: Antibacterial activity against Staphylococcus epidermidis assessed as inhibition of visible growth incubated for 20 to 24 hrs by microbroth serial dilution assay; format: functional, organism-based; conditions: time 20-24 hrs
[6] = target: Voltage-gated inwardly rectifying potassium channel KCNH2 (Homo sapiens, UniProt Q12809); assay: Inhibition of hERG expressed in HEK293 cells assessed as tail current measured after 8 mins by automated whole-cell Qpatch Clamp assay
hERG (KCNH2) = hERG (KCNH2) (Homo sapiens, UniProt Q12809); assay: Inhibition of hERG expressed in HEK293 cells assessed as tail current at 60 uM measured after 8 mins by automated whole-cell Qpatch Clamp assay relative to control; conditions: HEK293 cells that express hERG
in vitro [7] = conditions: mouse, liver microsomes
in vitro [8] = conditions: mouse, liver microsomes; remark: listed apart in the source
in vitro [9] = conditions: human, liver microsomes
in vitro [10] = conditions: human, liver microsomes; remark: listed apart in the source
Staphylococcus aureus [11] = assay: In vivo antibacterial activity against methicillin susceptible Staphylococcus aureus ATCC 25923 infected sepsis/peritonitis infection model assessed as reduction in bacterial burden in peritoneum at 80 mg/kg, sc twice at 1 hr and 3 hrs measured after 6 hrs; format: functional
Staphylococcus aureus [12] = assay: In vivo antibacterial activity against methicillin susceptible Staphylococcus aureus ATCC 25923 infected sepsis/peritonitis infection model assessed as reduction in bacterial burden in blood at 80 mg/kg, sc twice at 1 hr and 3 hrs measured after 6 hrs; format: functional
Staphylococcus aureus [13] = assay: Antibacterial activity against multi drug-resistant Staphylococcus aureus USA300 FPR3757 assessed as reduction in bacterial growth at 1 times of MIC concentration measured after 24 hrs by time-kill assay; format: functional, organism-based
Staphylococcus aureus [14] = assay: (§1) Induction of resistant development in -(6-(6-(Piperazin-1-y1)-9H-purin-9-y)methyl)pyridin-3-y1)-1H-1,2,3-triazol-1-yl)-22-deoxypleuromutilin-16 passages resistance developed Staphylococcus aureus USA300 FPR3757 assessed as fold increase in MIC at sub-MIC concentration measured after 5 passages with conjugate by serial passage assay; format: functional
Staphylococcus aureus [15] = assay: as §1, with “after 9” for “after 5”; format: functional
Staphylococcus aureus [16] = assay: as §1, with “after 13” for “after 5”; format: functional
Staphylococcus aureus [17] = assay: as §1, with “after 18” for “after 5”; format: functional
Staphylococcus aureus [18] = assay: as §1, with “after 22” for “after 5”; format: functional
Staphylococcus aureus [19] = assay: as §1, with “after 25” for “after 5”; format: functional
Staphylococcus aureus [20] = assay: as §1, with “after 28” for “after 5”; format: functional
Staphylococcus aureus [21] = assay: Induction of resistant development in lefamulin 5 passages resistance developed Staphylococcus aureus USA300 FPR3757 assessed as fold increase in MIC at sub-MIC concentration measured after 5 passages with conjugate by serial passage assay; format: functional
Staphylococcus aureus [22] = assay: Induction of resistant development in lefamulin 5 passages resistance developed Staphylococcus aureus USA300 FPR3757 assessed as fold increase in MIC at sub-MIC concentration measured after 9 passages with conjugate by serial passage assay; format: functional
Staphylococcus aureus [23] = assay: Induction of resistant development in lefamulin 5 passages resistance developed Staphylococcus aureus USA300 FPR3757 assessed as fold increase in MIC at sub-MIC concentration measured after 13 passages with conjugate by serial passage assay; format: functional
Staphylococcus aureus [24] = assay: Induction of resistant development in lefamulin 5 passages resistance developed Staphylococcus aureus USA300 FPR3757 assessed as fold increase in MIC at sub-MIC concentration measured after 18 passages with conjugate by serial passage assay; format: functional
Staphylococcus aureus [25] = assay: Induction of resistant development in lefamulin 5 passages resistance developed Staphylococcus aureus USA300 FPR3757 assessed as fold increase in MIC at sub-MIC concentration measured after 22 passages with conjugate by serial passage assay; format: functional
Staphylococcus aureus [26] = assay: Induction of resistant development in lefamulin 5 passages resistance developed Staphylococcus aureus USA300 FPR3757 assessed as fold increase in MIC at sub-MIC concentration measured after 25 passages with conjugate by serial passage assay; format: functional
Staphylococcus aureus [27] = assay: Induction of resistant development in lefamulin 5 passages resistance developed Staphylococcus aureus USA300 FPR3757 assessed as fold increase in MIC at sub-MIC concentration measured after 28 passages with conjugate by serial passage assay; format: functional
Staphylococcus aureus [28] = assay: Induction of resistant development in linezolid 5 passages resistance developed Staphylococcus aureus USA300 FPR3757 assessed as fold increase in MIC at sub-MIC concentration measured after 5 passages with conjugate by serial passage assay; format: functional
Staphylococcus aureus [29] = assay: Induction of resistant development in linezolid 5 passages resistance developed Staphylococcus aureus USA300 FPR3757 assessed as fold increase in MIC at sub-MIC concentration measured after 9 passages with conjugate by serial passage assay; format: functional
Staphylococcus aureus [30] = assay: Induction of resistant development in linezolid 5 passages resistance developed Staphylococcus aureus USA300 FPR3757 assessed as fold increase in MIC at sub-MIC concentration measured after 13 passages with conjugate by serial passage assay; format: functional
Staphylococcus aureus [31] = assay: Induction of resistant development in linezolid 5 passages resistance developed Staphylococcus aureus USA300 FPR3757 assessed as fold increase in MIC at sub-MIC concentration measured after 18 passages with conjugate by serial passage assay; format: functional
Staphylococcus aureus [32] = assay: Induction of resistant development in linezolid 5 passages resistance developed Staphylococcus aureus USA300 FPR3757 assessed as fold increase in MIC at sub-MIC concentration measured after 22 passages with conjugate by serial passage assay; format: functional
Staphylococcus aureus [33] = assay: Induction of resistant development in linezolid 5 passages resistance developed Staphylococcus aureus USA300 FPR3757 assessed as fold increase in MIC at sub-MIC concentration measured after 25 passages with conjugate by serial passage assay; format: functional
Staphylococcus aureus [34] = assay: Induction of resistant development in linezolid 5 passages resistance developed Staphylococcus aureus USA300 FPR3757 assessed as fold increase in MIC at sub-MIC concentration measured after 28 passages with conjugate by serial passage assay; format: functional

Sequence of hERG (KCNH2) (Q12809 whole entry): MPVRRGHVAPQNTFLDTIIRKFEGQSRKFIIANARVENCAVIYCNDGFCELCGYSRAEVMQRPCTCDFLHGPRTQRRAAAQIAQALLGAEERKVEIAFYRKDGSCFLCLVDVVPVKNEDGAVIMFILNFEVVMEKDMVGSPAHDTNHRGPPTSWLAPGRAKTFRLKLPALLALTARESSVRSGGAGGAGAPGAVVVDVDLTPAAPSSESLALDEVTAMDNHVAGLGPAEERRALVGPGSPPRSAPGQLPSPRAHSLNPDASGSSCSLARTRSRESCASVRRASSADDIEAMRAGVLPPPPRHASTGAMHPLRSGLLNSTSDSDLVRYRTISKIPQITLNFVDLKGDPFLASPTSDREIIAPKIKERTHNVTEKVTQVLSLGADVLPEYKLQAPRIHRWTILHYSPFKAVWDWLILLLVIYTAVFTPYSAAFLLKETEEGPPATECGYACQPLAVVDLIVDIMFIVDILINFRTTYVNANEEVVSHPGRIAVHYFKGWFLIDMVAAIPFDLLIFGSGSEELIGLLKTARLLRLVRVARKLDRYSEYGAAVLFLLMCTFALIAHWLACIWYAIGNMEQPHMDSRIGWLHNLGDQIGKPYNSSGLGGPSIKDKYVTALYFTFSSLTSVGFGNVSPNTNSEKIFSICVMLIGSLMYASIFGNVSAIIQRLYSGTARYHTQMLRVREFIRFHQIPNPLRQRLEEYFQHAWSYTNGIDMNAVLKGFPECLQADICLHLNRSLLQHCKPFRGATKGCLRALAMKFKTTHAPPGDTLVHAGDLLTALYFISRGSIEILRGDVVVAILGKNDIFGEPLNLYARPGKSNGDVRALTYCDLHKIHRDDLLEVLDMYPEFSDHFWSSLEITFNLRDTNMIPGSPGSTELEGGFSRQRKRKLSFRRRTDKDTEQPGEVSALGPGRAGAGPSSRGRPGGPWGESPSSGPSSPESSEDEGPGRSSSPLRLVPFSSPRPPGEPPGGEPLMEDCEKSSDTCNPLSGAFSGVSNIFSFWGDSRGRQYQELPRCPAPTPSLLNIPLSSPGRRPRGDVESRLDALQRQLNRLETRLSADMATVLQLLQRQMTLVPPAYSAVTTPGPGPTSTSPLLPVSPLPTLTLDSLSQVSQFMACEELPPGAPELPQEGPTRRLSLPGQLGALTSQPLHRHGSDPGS
Sequence of Voltage-gated inwardly rectifying potassium channel KCNH2 (Q12809 whole entry): as above

C=C[C@]1(C)C[C@@H](OC(=O)Cn2cc(-c3ccc(Cn4cnc5c(N)ncnc54)cc3)nn2)[C@]2(C)[C@H](C)CC[C@]3(CCC(=O)[C@H]32)[C@@H](C)[C@@H]1O
IC50 [1]: 36 µM | MIC (Staphylococcus aureus [2]): 0.03 µg/mL (≈ 0.046 µM) | MIC (Streptococcus pneumoniae): 0.5 µg/mL (≈ 0.766 µM) | MIC (Enterococcus faecalis): 0.25 µg/mL (≈ 0.383 µM) | MIC (Enterococcus faecium [3]): 0.12 µg/mL (≈ 0.184 µM) | MIC (Enterococcus faecium [4]): 0.12 µg/mL (≈ 0.184 µM) | Activity (Escherichia coli): inactive | Activity (Listeria): inactive | Activity [5]: inactive | IC50 [6]: > 200 µM | inhibition at 8 min, 60 µM (hERG (KCNH2)): 26.3% | half-life at 0.5 h, 1 µM (in vitro [7]): < 0.5 min | CLint scaled at 0.5 h, 1 µM (in vitro [8]): > 600 L/h/kg | half-life at 0.5 h, 1 µM (in vitro [9]): 1.2 min | CLint scaled at 0.5 h, 1 µM (in vitro [10]): 305 L/h/kg

C=C[C@]1(C)C[C@@H](OC(=O)Cn2cc(-c3ccc(Cn4cnc5c(N6CCNCC6)ncnc54)nc3)nn2)[C@]2(C)[C@H](C)CC[C@]3(CCC(=O)[C@H]32)[C@@H](C)[C@@H]1O.Cl.Cl
Activity (Staphylococcus aureus [11]): 1 log10FFU/ml | Activity (Staphylococcus aureus [12]): 2 log10FFU/ml

C=C[C@]1(C)C[C@@H](OC(=O)Cn2cc(-c3ccc(Cn4cnc5c(N6CCNCC6)ncnc54)nc3)nn2)[C@]2(C)[C@H](C)CC[C@]3(CCC(=O)[C@H]32)[C@@H](C)[C@@H]1O
Activity (Staphylococcus aureus [13]): inactive | fold change (FC) (Staphylococcus aureus [14]): 8 | fold change (FC) (Staphylococcus aureus [15]): 8 | fold change (FC) (Staphylococcus aureus [16]): 16 | fold change (FC) (Staphylococcus aureus [17]): 32 | fold change (FC) (Staphylococcus aureus [18]): 32 | fold change (FC) (Staphylococcus aureus [19]): 64 | fold change (FC) (Staphylococcus aureus [20]): 64 | fold change (FC) (Staphylococcus aureus [21]): 4 | fold change (FC) (Staphylococcus aureus [22]): 16 | fold change (FC) (Staphylococcus aureus [23]): 32 | fold change (FC) (Staphylococcus aureus [24]): 32 | fold change (FC) (Staphylococcus aureus [25]): 32 | fold change (FC) (Staphylococcus aureus [26]): 64 | fold change (FC) (Staphylococcus aureus [27]): 128 | fold change (FC) (Staphylococcus aureus [28]): 4 | fold change (FC) (Staphylococcus aureus [29]): 8 | fold change (FC) (Staphylococcus aureus [30]): 16 | fold change (FC) (Staphylococcus aureus [31]): 8 | fold change (FC) (Staphylococcus aureus [32]): 32 | fold change (FC) (Staphylococcus aureus [33]): 32 | fold change (FC) (Staphylococcus aureus [34]): 32
